For eleven compounds, melting point and IC50 results are on record in patent US6455550B1, “N-alkanoylphenylalanine derivatives” (Hoffmann-La Roche Inc., priority 1997, dated 2002).

The structures appear in SMILES notation. Where two headings read alike, the source gives them in different places.

Data set [1] concerns the target T1, cell-surface VLA-4 (α4β1 integrin) on Ramos cells binding to immobilized VCAM-1 (Homo sapiens, UniProt P05556+P13612).
T1 construct: Ramos cells bearing cell-surface VLA-4; endogenous in cells; host or cells: Ramos cells (VLA-4); VCAM-1 purified from CHO cell culture media
Put plainly: Ramos (VLA-4)/VCAM-1 Cell-Based Screening Assay (cell adhesion). The following applies: Calcein-AM labeled Ramos cells, VCAM-1 coated plates, 45 min at room temperature. An excerpt:
Calcein-AM was purchased from Molecular Probes Inc.
VLA-4 (α4β1 integrin) antagonist activity, defined as ability to compete with cell-surface VLA-4 for binding to immobilized VCAM-1, was quantitated using a Ramos-VCAM-1 cell adhesion assay. Ramos cells bearing cell-surface VLA-4, were labeled with a fluorescent dye (Calcein-AM) and allowed to bind VCAM-1 in the presence or absence of test compounds.
Initially, this entailed coating 96 well plates (Nunc Maxisorp) with recombinant human VCAM-1 (100 ng in 100 μl PBS), sealing each plate and allowing the plates to stand at 4° C for Å18 hr. The VCAM-coated plates were subsequently washed twice with 0.05% Tween-20 in PBS, and then blocked for 1hr (room temperature) with 200 μl of Blocking Buffer (1% BSA/0.02% thimerosal) to reduce non-specific binding. Following the incubation with Blocking Buffer, plates were inverted, blotted and the remaining buffer aspirated. Each plate was then washed with 300 μl PBS, inverted and the remaining PBS aspirated.
Test compounds were dissolved in 100% DMSO and then diluted 1:25 in VCAM Cell Adhesion Assay Buffer (4 mM CaCl2, 4 mM MgCl2 in 50 mM TRIS-HCl, pH 7.5) (final DMSO=4%). […] 100 μl/well of each dilution was added to the VCAM-coated plates, followed by 100 μl of Ramos cells (200,000 cells/well in 1% BSA/PBS). […] Plates were inverted to remove non-adherent cells, blotted and 300 μl/well PBS added. Plates were again inverted, blotted and the remaining buffer gently aspirated. 100 μl Lysis Buffer (0.1% SDS in 50 mM TRIS-HCl, pH 8.5) was added to each well and agitated for 2 min on a rotary shaking platform.

The target of data set [2] is T2, VLA-4 (α4β1 integrin) binding to immobilized VCAM-1 (Homo sapiens, UniProt P05556+P13612).
T2 construct: followed by 10 μl of Ramos cell-derived VLA-4; endogenous in cells; host or cells: Ramos cells (VLA-4 preparation derived from the cells)
Briefly: VLA-4/VCAM-1 Screening Assay (solid-phase, dual antibody ELISA). The following applies: Ramos cell-derived VLA-4, recombinant human VCAM-1 coated plates, 2 hr at 37° C. An outline of the steps: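 Recombinant human VCAM-1 is coated onto plates and Ramos cell-derived VLA-4 is added with compound (final DMSO 5%) in Tris buffer pH 7.4 with 1 mM MnCl2 and 1 mg/mL BSA, 2 hr at 37° C. Bound VLA-4 is detected by anti-β1 antibody, HRP anti-mouse IgG and K-Blue colorimetry. Results are % inhibition of total binding.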
Background: An ELISA detects its analyte on a solid surface through an enzyme-linked reagent.

[3] abbreviates: IC50 in Ramos Cell Based Assay (nM).
Setting [4] is: read-out: IC50 in Ramos Cell Based Assay.

In general, melting point refers to the temperature of the solid-liquid transition. As usually defined, the IC50 is the midpoint of a concentration-inhibition curve.

T1 sequence (P13612 34-1032): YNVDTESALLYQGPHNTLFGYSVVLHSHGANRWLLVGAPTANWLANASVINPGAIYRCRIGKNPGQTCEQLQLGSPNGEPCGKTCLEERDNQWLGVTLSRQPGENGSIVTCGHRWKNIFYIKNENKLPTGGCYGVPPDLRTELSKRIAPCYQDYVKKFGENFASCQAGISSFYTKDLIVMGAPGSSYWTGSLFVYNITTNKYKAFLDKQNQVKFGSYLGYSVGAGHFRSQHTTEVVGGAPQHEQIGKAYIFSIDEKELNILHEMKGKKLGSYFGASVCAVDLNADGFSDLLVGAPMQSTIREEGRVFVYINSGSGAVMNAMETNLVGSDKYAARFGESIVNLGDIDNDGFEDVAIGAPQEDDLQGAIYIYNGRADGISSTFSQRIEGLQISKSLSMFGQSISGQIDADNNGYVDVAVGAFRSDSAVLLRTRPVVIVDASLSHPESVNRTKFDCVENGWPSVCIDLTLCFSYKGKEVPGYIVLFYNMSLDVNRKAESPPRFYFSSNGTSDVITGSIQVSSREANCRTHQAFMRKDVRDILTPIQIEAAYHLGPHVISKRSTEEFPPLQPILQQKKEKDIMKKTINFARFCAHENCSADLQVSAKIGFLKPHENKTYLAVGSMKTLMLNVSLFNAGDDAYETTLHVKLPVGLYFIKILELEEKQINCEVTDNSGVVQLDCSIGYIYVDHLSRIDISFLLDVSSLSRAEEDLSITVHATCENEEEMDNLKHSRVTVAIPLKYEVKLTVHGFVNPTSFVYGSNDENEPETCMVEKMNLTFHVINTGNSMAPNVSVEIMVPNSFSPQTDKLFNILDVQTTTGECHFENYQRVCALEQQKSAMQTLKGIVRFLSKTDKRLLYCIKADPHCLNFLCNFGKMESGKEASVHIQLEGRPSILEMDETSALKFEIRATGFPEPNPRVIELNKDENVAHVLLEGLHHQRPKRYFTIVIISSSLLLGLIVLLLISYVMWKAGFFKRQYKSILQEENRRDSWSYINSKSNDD
T1 sequence (P05556 21-798): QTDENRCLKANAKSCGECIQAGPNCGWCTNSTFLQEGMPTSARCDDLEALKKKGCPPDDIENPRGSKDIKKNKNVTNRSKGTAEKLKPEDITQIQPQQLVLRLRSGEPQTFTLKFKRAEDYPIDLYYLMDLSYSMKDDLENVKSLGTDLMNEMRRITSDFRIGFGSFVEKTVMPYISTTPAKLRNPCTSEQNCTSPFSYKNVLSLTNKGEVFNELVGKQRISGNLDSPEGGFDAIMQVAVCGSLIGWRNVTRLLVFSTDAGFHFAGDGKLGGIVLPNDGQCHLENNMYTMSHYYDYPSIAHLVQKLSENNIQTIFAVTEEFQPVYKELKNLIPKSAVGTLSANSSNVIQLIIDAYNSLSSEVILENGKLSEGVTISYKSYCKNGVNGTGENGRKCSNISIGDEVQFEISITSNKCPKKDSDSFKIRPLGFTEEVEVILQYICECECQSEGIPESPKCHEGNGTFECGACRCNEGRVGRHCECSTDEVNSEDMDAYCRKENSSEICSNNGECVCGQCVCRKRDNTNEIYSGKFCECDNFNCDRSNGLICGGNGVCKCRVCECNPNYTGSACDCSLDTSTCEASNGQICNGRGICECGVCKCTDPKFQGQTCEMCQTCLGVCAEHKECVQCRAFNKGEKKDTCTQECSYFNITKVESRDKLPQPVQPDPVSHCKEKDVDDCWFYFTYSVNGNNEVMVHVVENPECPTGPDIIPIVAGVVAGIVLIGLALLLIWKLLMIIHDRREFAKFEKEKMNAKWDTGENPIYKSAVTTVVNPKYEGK
T2 sequence (P13612 34-1032): as the sequence (P13612 34-1032) above
T2 sequence (P05556 21-798): as the sequence (P05556 21-798) above

Regarding `COc1ccc(CC2(C(=O)N[C@@H](Cc3ccc(NC(=O)c4c(Cl)cccc4Cl)cc3)C(=O)O)CCCCC2)cc1` [Example 47, 4-[[(2,6-Dichlorophenyl)carbonyl]amino]-N-[[1-(4-methoxyphenylmethyl)cyclohexyl]carbonyl]-L-phenylalanine], the melting point lay in the range of 136 to 140 °C. On the same count and under the same terms, for `COCCC1(C(=O)N[C@@H](Cc2ccc(NC(=O)c3c(Cl)cccc3Cl)cc2)C(=O)OC)CCCC1` [Example 397, 4-[[(2,6-Dichlorophenyl)carbonyl]amino]-N-[[1-(2-methoxyethyl)cyclopentyl]carbonyl]-L-phenylalanine Methyl Ester] the value was 85 to 87 °C; for `COCCC1(C(=O)N[C@@H](Cc2ccc(NC(=O)c3c(Cl)cccc3Cl)cc2)C(=O)O)CCCC1` [Example 398, 4-[[(2,6-Dichlorophenyl)carbonyl]amino]-N-[[1-(2-methoxyethyl)cyclopentyl]carbonyl]-L-phenylalanine], 136 to 140 °C. `CS(=O)(=O)CCC1(C(=O)N[C@@H](Cc2ccc(NC(=O)c3c(Cl)cccc3Cl)cc2)C(=O)O)CCCC1` [Example 358] registered a melting point of 184 to 187 °C. For the same compound, the IC50 in data set [1] (setting [3]) is 75 nM. With `COCCC1(C(=O)N[C@@H](Cc2ccc(NC(=O)c3cc(C#N)ccc3Cl)cc2)C(=O)OC)CCCC1` [Example 362, 4-[(2-Chloro-5-cyanophenylcarbonyl)amino]-N-[[1-(2-methoxyethyl)cyclopentyl]carbonyl]-L-phenylalanine Methyl Ester], the melting point is 172 to 175 °C. `COCCC1(C(=O)N[C@@H](Cc2ccc(NC(=O)c3cc(C#N)ccc3Cl)cc2)C(=O)O)CCCC1` [Example 363, 4-[(2-Chloro-5-cyanophenylcarbonyl)amino]-N-[[1-(2-methoxyethyl)cyclopentyl]carbonyl]-L-phenylalanine] had a melting point of 169 to 172 °C. Besides, the IC50 in data set [2] (read-out: IC50) stood at 0.64 nM. Further, the half-maximal inhibitory concentration (IC50) in data set [1] (setting [4]) is 11 nM. The compound `C[S+]([O-])CCC1(C(=O)N[C@@H](Cc2ccc(NC(=O)c3c(Cl)cccc3Cl)cc2)C(=O)O)CCCC1` (stereo partly shown) [Example 357] gave a melting point of 255 to 258 °C. The IC50 in data set [1] (setting [3]) was 25 nM. Turning to `CCCCC1(C(=O)N[C@@H](Cc2ccc(NC(=O)c3c(Cl)cccc3Cl)cc2)C(=O)O)CCCC1` [Example 270], the results for the IC50 in data set [2] (IC50 nM) and in data set [1] (setting [3]) were 1.1 nM and 150 nM, respectively. Turning to `COCCC1(C(=O)N[C@@H](Cc2ccc(N3C(=O)c4ccc(C#N)cc4C3=O)cc2)C(=O)O)CCCC1` [Example 371, 4-(5-Cyano-1,3-dioxo-2H-isoindol-2-yl)-N-[[1-(2-methoxyethyl)cyclopentyl]carbonyl]-L-phenylalanine], the melting point fell in the range of 143 to 146 °C. The IC50 in data set [2] (read-out: IC50) came out at 1.65 nM. In the case of `Cc1cc([N+](=O)[O-])ccc1C(=O)Nc1ccc(C[C@H](NC(=O)C2(C)CC2(Cl)Cl)C(=O)O)cc1` (stereo partly shown) [Example 100], the IC50 in data set [2] (read-out: IC50) is 0.26 nM; in data set [1] (setting [4]), 54.5 nM. As for `O=C(NCCC1(C(=O)N[C@@H](Cc2ccc(NC(=O)c3c(Cl)cccc3Cl)cc2)C(=O)O)CCCC1)c1ccno1` [Example 158], the values for the IC50 in data set [2] (read-out: IC50) and in data set [1] (setting [4]) were 5 nM and 124 nM, respectively.
